From the kinase profiling compilation of Christmann-Franck et al. (2016)

Tests used:
Assay in all cases: radiometric filter-binding kinase assay, Kinase HotSpot
Details in all cases: compound 0.5 µM; ATP 10 µM
[1] = target: DYRK1B (human) (UniProt Q9Y463)
[2] = target: MATK (human) (UniProt P42679)
[3] = target: SRPK1 (human) (UniProt Q96SB4)
[4] = target: MAPK8 (human) (UniProt P45983)
[5] = target: PRKACG (human) (UniProt P22612)
[6] = target: PRKX (human) (UniProt P51817)
[7] = target: IRAK4 (human) (UniProt Q9NWZ3)
[8] = target: JAK3 JH1 JH2 (human) (UniProt P52333)
[9] = target: TAOK2 (human) (UniProt Q9UL54)
[10] = target: TLK2 (human) (UniProt Q86UE8)
[11] = target: CSNK2A2 (human) (UniProt P19784)
[12] = target: DYRK4 (human) (UniProt Q9NR20)
[13] = target: STK38 (human) (UniProt Q15208)
[14] = target: ABL1 (human) (UniProt P00519)
[15] = target: PKN2 (human) (UniProt Q16513)
[16] = target: RPS6KA2 KD1 KD2 (human) (UniProt Q15349)
[17] = target: PRKCH (human) (UniProt P24723)
[18] = target: EPHB1 (human) (UniProt P54762)
[19] = target: STK33 (human) (UniProt Q9BYT3)
[20] = target: PAK7 (human) (UniProt Q9P286)
[21] = target: EPHA6 (human) (UniProt Q9UF33)
[22] = target: RPS6KA3 KD1 KD2 (human) (UniProt P51812)
[23] = target: PRKCI (human) (UniProt P41743)
[24] = target: BRAF (human) (UniProt P15056)
[25] = target: JAK2 JH1 JH2 (human) (UniProt O60674)
[26] = target: CHUK (human) (UniProt O15111)
[27] = target: CSNK1E (human) (UniProt P49674)
[28] = target: OXSR1 (human) (UniProt O95747)
[29] = target: ULK3 (human) (UniProt Q6PHR2)
[30] = target: CSK (human) (UniProt P41240)
[31] = target: PRKD2 (human) (UniProt Q9BZL6)
[32] = target: CAMK2D (human) (UniProt Q13557)
[33] = target: RPS6KA4 KD2 (human) (UniProt O75676)
[34] = target: MYO3B (human) (UniProt Q8WXR4)
[35] = target: CDK5 CDK5R1 p25 (human) (UniProt Q00535+Q15078)
[36] = target: PBK (human) (UniProt Q96KB5)
[37] = target: ULK1 (human) (UniProt O75385)
[38] = target: MAPK11 (human) (UniProt Q15759)
[39] = target: MAPK12 (human) (UniProt P53778)
[40] = target: MAPK9 (human) (UniProt P45984)

Chain of CSNK2A2 (human) (P19784 whole entry, looked up): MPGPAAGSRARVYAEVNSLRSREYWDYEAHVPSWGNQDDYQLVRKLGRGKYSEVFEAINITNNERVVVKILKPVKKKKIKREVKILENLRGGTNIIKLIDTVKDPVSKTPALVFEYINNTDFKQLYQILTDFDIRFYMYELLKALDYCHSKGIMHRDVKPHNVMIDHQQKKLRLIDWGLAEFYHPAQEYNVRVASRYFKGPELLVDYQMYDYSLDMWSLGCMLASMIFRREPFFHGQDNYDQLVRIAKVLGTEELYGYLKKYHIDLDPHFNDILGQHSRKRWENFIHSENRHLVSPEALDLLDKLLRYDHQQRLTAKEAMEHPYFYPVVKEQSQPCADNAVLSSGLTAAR
Chain of PRKX (human) (P51817 whole entry, looked up): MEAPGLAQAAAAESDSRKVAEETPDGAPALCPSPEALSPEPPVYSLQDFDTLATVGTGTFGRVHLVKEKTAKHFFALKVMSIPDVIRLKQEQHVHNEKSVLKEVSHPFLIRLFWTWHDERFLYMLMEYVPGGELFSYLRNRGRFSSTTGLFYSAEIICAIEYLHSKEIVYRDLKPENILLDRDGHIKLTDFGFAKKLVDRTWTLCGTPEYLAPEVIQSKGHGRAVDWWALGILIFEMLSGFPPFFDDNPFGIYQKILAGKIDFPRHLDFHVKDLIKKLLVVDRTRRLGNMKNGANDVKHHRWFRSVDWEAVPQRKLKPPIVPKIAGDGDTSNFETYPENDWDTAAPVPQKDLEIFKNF
Chain of PRKD2 (human) (Q9BZL6 whole entry, looked up): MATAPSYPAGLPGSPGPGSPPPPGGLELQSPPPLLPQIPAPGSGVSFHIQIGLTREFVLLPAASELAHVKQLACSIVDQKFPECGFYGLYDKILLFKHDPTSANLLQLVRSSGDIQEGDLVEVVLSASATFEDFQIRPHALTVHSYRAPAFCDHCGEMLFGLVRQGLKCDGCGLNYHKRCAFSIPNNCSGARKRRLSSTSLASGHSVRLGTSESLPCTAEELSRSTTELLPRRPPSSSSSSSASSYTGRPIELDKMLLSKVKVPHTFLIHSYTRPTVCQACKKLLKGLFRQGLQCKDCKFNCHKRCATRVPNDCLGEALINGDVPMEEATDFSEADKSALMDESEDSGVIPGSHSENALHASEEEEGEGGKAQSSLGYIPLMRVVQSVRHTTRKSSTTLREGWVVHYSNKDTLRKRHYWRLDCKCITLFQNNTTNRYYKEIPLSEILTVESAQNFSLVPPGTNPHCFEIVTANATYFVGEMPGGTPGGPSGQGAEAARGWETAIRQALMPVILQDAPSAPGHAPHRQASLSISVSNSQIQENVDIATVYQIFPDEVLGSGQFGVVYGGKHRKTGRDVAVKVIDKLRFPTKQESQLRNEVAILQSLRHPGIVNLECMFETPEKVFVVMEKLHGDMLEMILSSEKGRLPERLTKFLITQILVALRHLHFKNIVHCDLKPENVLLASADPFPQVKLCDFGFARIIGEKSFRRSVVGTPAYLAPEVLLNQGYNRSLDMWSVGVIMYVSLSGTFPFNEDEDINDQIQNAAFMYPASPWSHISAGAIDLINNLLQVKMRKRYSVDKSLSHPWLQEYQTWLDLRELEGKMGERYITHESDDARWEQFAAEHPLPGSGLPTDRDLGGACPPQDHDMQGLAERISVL
Chain of OXSR1 (human) (O95747 whole entry, looked up): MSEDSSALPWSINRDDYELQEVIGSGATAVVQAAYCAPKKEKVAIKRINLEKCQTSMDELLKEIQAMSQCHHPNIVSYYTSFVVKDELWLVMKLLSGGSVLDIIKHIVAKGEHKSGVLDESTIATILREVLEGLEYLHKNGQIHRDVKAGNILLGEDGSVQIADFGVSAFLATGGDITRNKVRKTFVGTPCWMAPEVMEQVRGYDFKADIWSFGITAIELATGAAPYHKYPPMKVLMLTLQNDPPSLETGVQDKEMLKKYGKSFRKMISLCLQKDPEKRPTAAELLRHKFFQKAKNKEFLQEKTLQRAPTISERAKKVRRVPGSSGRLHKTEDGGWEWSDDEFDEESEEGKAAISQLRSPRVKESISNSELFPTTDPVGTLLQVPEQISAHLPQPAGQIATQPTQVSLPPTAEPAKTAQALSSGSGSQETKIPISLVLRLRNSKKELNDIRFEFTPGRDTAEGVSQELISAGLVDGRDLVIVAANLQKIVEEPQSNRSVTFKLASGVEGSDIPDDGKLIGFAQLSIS
Chain of ABL1 (human) (P00519 whole entry, looked up): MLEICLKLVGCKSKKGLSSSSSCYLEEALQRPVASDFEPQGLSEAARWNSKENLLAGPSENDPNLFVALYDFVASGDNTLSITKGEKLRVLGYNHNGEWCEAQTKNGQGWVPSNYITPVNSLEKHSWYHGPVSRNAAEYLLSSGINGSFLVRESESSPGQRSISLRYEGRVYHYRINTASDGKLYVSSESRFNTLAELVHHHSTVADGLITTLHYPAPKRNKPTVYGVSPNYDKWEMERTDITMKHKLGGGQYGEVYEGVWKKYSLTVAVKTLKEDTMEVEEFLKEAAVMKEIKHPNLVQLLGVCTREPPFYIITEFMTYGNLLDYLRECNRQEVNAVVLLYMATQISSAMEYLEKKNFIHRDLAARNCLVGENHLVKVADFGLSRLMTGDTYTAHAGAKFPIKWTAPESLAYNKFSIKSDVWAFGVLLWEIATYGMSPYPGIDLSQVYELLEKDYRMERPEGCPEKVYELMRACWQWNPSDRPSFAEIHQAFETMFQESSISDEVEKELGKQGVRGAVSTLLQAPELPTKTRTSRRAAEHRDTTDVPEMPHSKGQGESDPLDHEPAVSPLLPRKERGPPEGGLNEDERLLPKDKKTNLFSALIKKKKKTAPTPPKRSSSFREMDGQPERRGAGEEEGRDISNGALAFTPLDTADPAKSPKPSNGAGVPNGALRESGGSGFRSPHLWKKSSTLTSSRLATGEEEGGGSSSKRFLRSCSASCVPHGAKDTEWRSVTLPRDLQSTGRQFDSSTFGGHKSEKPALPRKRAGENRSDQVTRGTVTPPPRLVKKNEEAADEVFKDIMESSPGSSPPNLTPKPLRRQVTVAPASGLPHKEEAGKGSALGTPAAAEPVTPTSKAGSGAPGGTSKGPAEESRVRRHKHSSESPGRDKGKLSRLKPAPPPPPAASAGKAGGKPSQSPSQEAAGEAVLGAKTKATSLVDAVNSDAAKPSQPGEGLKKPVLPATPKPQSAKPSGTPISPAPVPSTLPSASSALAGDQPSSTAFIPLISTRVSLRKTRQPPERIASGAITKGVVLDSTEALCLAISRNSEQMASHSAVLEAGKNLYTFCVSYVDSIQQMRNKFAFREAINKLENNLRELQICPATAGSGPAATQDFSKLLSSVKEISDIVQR
Chain of CAMK2D (human) (Q13557 whole entry, looked up): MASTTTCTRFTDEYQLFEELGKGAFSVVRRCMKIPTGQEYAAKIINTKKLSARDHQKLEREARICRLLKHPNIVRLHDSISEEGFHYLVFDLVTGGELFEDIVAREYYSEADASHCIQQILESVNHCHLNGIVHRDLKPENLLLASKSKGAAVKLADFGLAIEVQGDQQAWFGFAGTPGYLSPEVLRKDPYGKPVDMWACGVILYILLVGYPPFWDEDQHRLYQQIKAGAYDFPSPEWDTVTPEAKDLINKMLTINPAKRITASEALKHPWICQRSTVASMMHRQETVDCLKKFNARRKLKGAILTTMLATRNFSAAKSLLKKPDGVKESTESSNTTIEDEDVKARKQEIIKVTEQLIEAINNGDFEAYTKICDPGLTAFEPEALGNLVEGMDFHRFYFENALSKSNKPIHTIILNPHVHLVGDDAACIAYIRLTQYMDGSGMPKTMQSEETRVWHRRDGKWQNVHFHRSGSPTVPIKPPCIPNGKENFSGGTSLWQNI
Chain of IRAK4 (human) (Q9NWZ3 whole entry, looked up): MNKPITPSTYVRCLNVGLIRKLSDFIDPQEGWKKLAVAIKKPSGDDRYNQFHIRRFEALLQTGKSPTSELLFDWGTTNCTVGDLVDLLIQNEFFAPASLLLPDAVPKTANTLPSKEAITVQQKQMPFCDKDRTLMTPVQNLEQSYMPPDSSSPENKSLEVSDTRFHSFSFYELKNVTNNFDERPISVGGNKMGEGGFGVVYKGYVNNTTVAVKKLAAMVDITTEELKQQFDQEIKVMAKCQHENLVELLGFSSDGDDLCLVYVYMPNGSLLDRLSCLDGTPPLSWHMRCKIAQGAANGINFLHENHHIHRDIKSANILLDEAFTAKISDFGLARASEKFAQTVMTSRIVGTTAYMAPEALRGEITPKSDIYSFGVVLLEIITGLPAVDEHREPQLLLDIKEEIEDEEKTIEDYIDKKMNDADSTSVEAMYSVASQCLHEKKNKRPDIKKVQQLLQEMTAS
Chain of CSK (human) (P41240 whole entry, looked up): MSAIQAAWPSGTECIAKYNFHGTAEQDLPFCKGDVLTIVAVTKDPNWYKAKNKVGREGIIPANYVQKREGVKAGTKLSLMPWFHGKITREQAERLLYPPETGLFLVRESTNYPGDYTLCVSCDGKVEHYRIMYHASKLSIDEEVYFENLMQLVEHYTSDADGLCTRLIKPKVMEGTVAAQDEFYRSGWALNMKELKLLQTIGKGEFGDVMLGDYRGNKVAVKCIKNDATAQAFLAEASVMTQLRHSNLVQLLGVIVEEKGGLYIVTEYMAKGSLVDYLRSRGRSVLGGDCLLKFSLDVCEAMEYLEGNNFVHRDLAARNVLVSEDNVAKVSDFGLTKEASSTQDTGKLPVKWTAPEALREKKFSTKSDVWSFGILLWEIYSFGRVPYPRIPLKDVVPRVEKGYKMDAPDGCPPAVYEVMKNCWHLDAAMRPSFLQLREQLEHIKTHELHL
Chain of PBK (human) (Q96KB5 whole entry, looked up): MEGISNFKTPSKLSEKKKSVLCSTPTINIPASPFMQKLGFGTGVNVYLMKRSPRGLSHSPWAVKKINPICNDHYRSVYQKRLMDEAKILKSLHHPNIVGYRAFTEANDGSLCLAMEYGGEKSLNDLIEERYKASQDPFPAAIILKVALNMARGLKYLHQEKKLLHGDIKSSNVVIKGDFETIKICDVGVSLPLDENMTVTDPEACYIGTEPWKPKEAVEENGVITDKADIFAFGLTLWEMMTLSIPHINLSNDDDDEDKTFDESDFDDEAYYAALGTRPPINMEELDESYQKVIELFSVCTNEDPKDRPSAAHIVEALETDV

Structure (SMILES)	residual activity [2]	residual activity [3]	residual activity [4]	residual activity [5]	residual activity [6]	residual activity [7]	residual activity [8]	residual activity [9]	residual activity [10]	residual activity [11]	residual activity [12]	residual activity [13]	residual activity [14]	residual activity [15]	residual activity [16]	residual activity [17]	residual activity [18]	residual activity [19]	residual activity [20]	residual activity [21]	other results
Nc1nccc(-c2c(-c3ccc(F)cc3)ncn2C2CCNCC2)n1	99.5%	103%	94.8%	105%	96.8%	123%	96.9%	98%	95.1%	92.2%	99.3%	99.8%	101%	97.1%	99.3%	91.9%	99.9%	98.6%	101%	78%	residual activity [1]: 100%; residual activity [22]: 92.2%; residual activity [23]: 98.5%; residual activity [24]: 103%; residual activity [25]: 99.6%; residual activity [26]: 101%; residual activity [27]: 2.39%; residual activity [28]: 101%; residual activity [29]: 95.5%; residual activity [30]: 90.8%; residual activity [31]: 50.4%; residual activity [32]: 100%; residual activity [33]: 98.7%; residual activity [34]: 97.9%; residual activity [35]: 95.4%; residual activity [36]: 94.9%; residual activity [37]: 95.3%
Oc1ccc(Nc2nc(-c3ccc(Cl)cc3)cs2)cc1	95.6%	103%	100%	112%	99.6%	111%	92.2%	101%	121%	96.9%	95.9%	98.2%	99.7%	93.8%	101%	96.3%	105%	97.5%	105%	101%	residual activity [1]: 106%; residual activity [38]: 105%; residual activity [39]: 106%; residual activity [40]: 98.3%; residual activity [22]: 107%; residual activity [23]: 99.5%; residual activity [25]: 101%; residual activity [26]: 104%; residual activity [27]: 103%; residual activity [28]: 88.8%; residual activity [29]: 94.4%; residual activity [30]: 101%; residual activity [31]: 102%; residual activity [32]: 98.8%; residual activity [33]: 91.5%; residual activity [34]: 98.7%; residual activity [35]: 85.9%; residual activity [36]: 100%; residual activity [37]: 84.2%
O=C1Cc2c([nH]c3ccc(Br)cc23)-c2ccccc2N1	93.6%	99.6%	87.5%	105%	100%	88.3%	103%	94%	99.4%	74.6%	97.2%	98.6%	82.6%	96.8%	94.9%	95.3%	93.5%	103%	85.1%	93.7%	residual activity [38]: 104%; residual activity [40]: 93.8%; residual activity [23]: 89.1%; residual activity [24]: 97.7%; residual activity [25]: 102%; residual activity [26]: 98.6%; residual activity [27]: 103%; residual activity [28]: 107%; residual activity [29]: 83.2%; residual activity [30]: 88%; residual activity [31]: 100%; residual activity [32]: 91.1%; residual activity [33]: 108%; residual activity [34]: 97.4%; residual activity [35]: 64.8%; residual activity [36]: 99.3%; residual activity [37]: 93.8%
